Reference: ChEMBL document CHEMBL5346941, “Design, synthesis and evaluation of novel monoamine oxidase B (MAO-B) inhibitors with improved pharmacokinetic properties for Parkinson's disease” (Eur J Med Chem, 2023)

Experiments:
[1] = biological target: T1, Amine oxidase [flavin-containing] A (Homo sapiens, UniProt P21397); assay: Inhibition of recombinant human MAO-A expressed in Sf9 cells using […] as substrate preincubated for 15 mins followed by substrate addition and measured after 60 mins by luciferin based luminescence analysis
T1 sequence (P21397 whole entry): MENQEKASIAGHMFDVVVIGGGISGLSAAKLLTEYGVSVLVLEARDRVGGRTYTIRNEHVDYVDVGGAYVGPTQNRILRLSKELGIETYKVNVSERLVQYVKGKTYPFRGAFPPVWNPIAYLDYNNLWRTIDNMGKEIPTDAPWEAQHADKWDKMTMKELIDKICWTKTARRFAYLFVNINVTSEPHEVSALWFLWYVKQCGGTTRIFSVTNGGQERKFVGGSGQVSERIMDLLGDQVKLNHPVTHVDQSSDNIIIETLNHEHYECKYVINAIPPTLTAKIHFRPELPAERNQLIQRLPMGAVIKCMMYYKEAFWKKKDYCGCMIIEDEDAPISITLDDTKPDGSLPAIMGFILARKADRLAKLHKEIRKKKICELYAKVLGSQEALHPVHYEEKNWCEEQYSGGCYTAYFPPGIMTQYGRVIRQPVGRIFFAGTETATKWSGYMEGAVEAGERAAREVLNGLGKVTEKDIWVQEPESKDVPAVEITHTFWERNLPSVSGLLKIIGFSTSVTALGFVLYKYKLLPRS

[2] = biological target: T2, Amine oxidase [flavin-containing] B (Homo sapiens, UniProt P27338); assay: Inhibition of recombinant human MAO-B expressed in Sf9 cells using p-tyramine as substrate preincubated for 15 mins followed by substrate addition and measured after 60 mins by luciferin based luminescence analysis
T2 sequence (P27338 whole entry): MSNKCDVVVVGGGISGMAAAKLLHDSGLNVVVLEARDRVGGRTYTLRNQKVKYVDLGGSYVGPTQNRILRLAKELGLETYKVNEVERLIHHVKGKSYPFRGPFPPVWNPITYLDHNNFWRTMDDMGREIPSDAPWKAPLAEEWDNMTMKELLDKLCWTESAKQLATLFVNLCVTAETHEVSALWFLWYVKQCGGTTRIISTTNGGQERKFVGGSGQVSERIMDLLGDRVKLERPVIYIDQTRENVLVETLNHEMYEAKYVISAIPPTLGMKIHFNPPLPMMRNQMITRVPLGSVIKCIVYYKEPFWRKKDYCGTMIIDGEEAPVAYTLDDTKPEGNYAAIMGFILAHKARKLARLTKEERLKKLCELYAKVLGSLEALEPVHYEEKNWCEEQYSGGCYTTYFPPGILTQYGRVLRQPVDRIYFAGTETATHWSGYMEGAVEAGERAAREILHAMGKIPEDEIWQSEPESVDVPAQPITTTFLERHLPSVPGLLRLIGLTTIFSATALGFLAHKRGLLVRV

[3] = Cmax in fasted Sprague-Dawley rat at 1 mg/kg, iv measured for 24 hrs; assay type: ADME, organism-based; design: dose 1 mg/kg, time 24 hrs, route iv; conditions: Sprague-Dawley, in vivo, read-out: Cmax
[4] = AUC (0 to t) in fasted Sprague-Dawley rat at 1 mg/kg, iv measured for 24 hrs; assay type: ADME, organism-based; design: dose 1 mg/kg, time 24 hrs, route iv; conditions: in vivo
[5] = AUC (0 to t) in fasted Sprague-Dawley rat at 5 mg/kg, IG measured for 24 hrs; assay type: ADME, organism-based; design: dose 5 mg/kg, time 24 hrs, route ig; conditions: in vivo, po
[6] = Elimination half life in fasted Sprague-Dawley rat at 5 mg/kg, IG measured for 24 hrs; assay type: ADME, organism-based; conditions: in vivo, po, read-out: beta t1/2 (converted)
[7] = Bioavailability in fasted Sprague-Dawley rat at 5 mg/kg, IG measured for 24 hrs; assay type: ADME, organism-based; conditions: in vivo, po
[8] = Cmax in fasted ICR mouse at 2 mg/kg, iv measured for 24 hrs; assay type: ADME, organism-based; design: time 24 hrs, dose 2 mg/kg, route iv; conditions: in vivo
[9] = Elimination half life in fasted ICR mouse at 5 mg/kg, IG measured for 24 hrs; assay type: ADME, organism-based; conditions: in vivo, po, read-out: beta t1/2 (converted)
[10] = Metabolic stability in human liver microsomes assessed as half life at 1 uM incubated for 60 mins in presence of NADPH by LC-MS/MS analysis; assay type: ADME, Microsome
[11] = Metabolic stability in mouse liver microsomes assessed as half life at 1 uM incubated for 60 mins in presence of NADPH by LC-MS/MS analysis; assay type: ADME, Microsome
[12] = Metabolic stability in rat liver microsomes assessed as intrinsic clearance at 1 uM incubated for 60 mins in presence of NADPH by LC-MS/MS analysis; assay type: ADME, Microsome; conditions: read-out: CLH
[13] = Drug concentration in Sprague-Dawley rat plasma at 5 mg/kg, ip measured after 15 mins by LC-MS/MS analysis; assay type: ADME, organism-based
[14] = Drug concentration in Sprague-Dawley rat plasma at 5 mg/kg, ip measured after 60 mins by LC-MS/MS analysis; assay type: ADME, organism-based
[15] = Drug concentration in Sprague-Dawley rat brain at 5 mg/kg, ip measured after 120 mins by LC-MS/MS analysis; assay type: ADME, organism-based; conditions: read-out: Ct
[16] = Ratio of drug concentration in Sprague-Dawley brain to plasma at 5 mg/kg, ip measured after 60 mins by LC-MS/MS analysis; assay type: ADME, organism-based; conditions: rat, read-out: BPR
[17] = Ratio of drug concentration in Sprague-Dawley brain to plasma at 5 mg/kg, ip measured after 120 mins by LC-MS/MS analysis; assay type: ADME, organism-based; conditions: rat, read-out: BPR
CYP2D6 = CYP2D6 (Homo sapiens, UniProt P10635); assay: Inhibition of CYP2D6 in human liver microsomes using propranolol as substrate at 10 uM incubated for 10 mins in presence of NADPH by LC-MS/MS analysis relative to control; assay type: ADME, Microsome; conditions: probe propranolol
Sequence of CYP2D6 (P10635 whole entry): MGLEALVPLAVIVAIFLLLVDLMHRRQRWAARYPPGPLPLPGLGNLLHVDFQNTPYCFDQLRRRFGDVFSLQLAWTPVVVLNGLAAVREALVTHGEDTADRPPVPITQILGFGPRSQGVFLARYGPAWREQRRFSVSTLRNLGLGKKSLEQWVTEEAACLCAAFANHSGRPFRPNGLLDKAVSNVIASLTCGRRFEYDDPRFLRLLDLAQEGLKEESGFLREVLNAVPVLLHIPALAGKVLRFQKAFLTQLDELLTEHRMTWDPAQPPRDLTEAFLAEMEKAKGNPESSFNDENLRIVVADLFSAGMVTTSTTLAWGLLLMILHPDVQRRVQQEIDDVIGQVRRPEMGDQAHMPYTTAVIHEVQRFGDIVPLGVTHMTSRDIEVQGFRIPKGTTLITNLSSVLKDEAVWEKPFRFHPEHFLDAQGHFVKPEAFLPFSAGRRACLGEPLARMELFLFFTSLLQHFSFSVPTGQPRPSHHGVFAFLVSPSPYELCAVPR

CYP3A4 = CYP3A4 (Homo sapiens, UniProt P08684); assay: Inhibition of CYP3A4 in human liver microsomes using midazolam as substrate at 10 uM incubated for 5 mins in presence of NADPH by LC-MS/MS analysis relative to control; assay type: ADME, Microsome; conditions: probe midazolam
Sequence of CYP3A4 (P08684 whole entry): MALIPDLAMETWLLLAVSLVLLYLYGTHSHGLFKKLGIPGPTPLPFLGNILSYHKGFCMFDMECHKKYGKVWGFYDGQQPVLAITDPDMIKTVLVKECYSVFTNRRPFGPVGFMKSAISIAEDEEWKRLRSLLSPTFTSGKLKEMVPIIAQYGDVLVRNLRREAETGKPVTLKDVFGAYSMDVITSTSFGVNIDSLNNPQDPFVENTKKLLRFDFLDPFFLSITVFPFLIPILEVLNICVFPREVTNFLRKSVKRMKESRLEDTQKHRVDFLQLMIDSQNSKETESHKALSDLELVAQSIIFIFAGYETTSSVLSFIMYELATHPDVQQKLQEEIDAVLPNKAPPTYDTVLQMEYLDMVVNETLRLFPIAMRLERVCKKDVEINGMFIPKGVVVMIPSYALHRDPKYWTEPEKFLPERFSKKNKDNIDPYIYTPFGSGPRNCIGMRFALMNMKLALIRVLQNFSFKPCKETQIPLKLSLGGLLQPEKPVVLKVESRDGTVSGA

CYP2C8 = biological target: T3, CYP2C8 (Homo sapiens, UniProt P10632); assay: Inhibition of CYP2C8 in human liver microsomes using amodiaquine as substrate at 10 uM incubated for 45 mins in presence of NADPH by LC-MS/MS analysis relative to control; assay type: ADME, Microsome; conditions: probe amodiaquine
T3 sequence (P10632 whole entry): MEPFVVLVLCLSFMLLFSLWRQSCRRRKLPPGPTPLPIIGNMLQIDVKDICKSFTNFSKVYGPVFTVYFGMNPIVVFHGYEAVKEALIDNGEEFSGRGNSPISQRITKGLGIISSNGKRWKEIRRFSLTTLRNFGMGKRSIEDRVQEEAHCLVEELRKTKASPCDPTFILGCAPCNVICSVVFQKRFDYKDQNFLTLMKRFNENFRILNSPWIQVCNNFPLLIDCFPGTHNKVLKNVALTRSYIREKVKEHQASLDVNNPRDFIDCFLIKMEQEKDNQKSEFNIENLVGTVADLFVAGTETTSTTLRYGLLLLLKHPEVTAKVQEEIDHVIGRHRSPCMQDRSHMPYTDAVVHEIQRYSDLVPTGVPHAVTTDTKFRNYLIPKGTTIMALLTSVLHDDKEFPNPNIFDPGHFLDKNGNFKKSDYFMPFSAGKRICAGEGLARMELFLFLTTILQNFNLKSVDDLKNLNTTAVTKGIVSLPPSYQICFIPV

[18] = Protein binding in mouse plasma at 1 uM incubated for 5 hrs by LC-MS/MS based rapid equilibrium dialysis method; assay type: ADME, cell-free; conditions: read-out: PPB (converted)

Structure (SMILES): NC(=O)[C@@H]1C[C@H](F)CN1Cc1ccc2oc(-c3ccc(F)cc3)cc2c1
- IC50 [1]: > 10000 nM
- IC50 [2]: 37 nM
- Cmax [3]: 273 ng/mL
- AUC(0-t) at 24 h [4]: 305 ng·h/mL
- AUC(0-t) at 24 h [5]: 2280 ng·h/mL
- half-life [6]: 4.22 h
- bioavailability [7]: 150%
- Cmax [8]: 900 ng/mL
- half-life [9]: 3.8 h
- half-life at 1 µM [10]: 10.4 h
- half-life at 1 µM [11]: 2.82 h
- CLint scaled at 1 µM [12]: 10.1 mL/min/kg
- concentration at 0.25 h [13]: 536 ng/mL
- concentration at 1 h [14]: 540 ng/mL
- concentration at 2 h [15]: 7090 ng/g
- Kp at 1 h [16]: 16.2
- Kp at 2 h [17]: 15.5
- inhibition at 10 min, 10 µM (CYP2D6): -3.37%
- inhibition at 5 min, 10 µM (CYP3A4): -45.2%
- inhibition at 0.75 h, 10 µM (CYP2C8): 5.74%
- fraction unbound at 5 h, 1 µM [18]: 0.0066
